± gives the standard deviation of the averaged measurements.
Tested on: HL-60
Test: cell viability (% survival relative to DMSO control); higher = less cytotoxic
Conditions: 72 h
Method in brief: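 Four-parameter log-logistic fits in drc and PharmacoGx supplied area under the curve where it is given. Underlying viability came from CellTiter-Glo, normalised to DMSO and proteasome-inhibitor wells, with the proteasome inhibitor at 10 μM. HL-60 cells in RPMI 1640 plus 10% FBS had been rescreened against the full library at five tenfold concentrations of 1–10,000 nM, in duplicate on 384-well plates, with DMSO or 100 nM of one of three metabolic inhibitors, for 72 h at 37 °C, 5% CO2.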

[1] = 0.001 µM, co-treatment: AZD3965 100 nM
[2] = 0.001 µM, co-treatment: DMSO vehicle
[3] = 0.001 µM, co-treatment: GSK2194069 100 nM
[4] = 0.001 µM, co-treatment: pictilisib 100 nM
[5] = 0.01 µM, co-treatment: AZD3965 100 nM
[6] = 0.01 µM, co-treatment: DMSO vehicle
[7] = 0.01 µM, co-treatment: GSK2194069 100 nM
[8] = 0.01 µM, co-treatment: pictilisib 100 nM
[9] = 0.1 µM, co-treatment: AZD3965 100 nM
[10] = 0.1 µM, co-treatment: DMSO vehicle
[11] = 0.1 µM, co-treatment: GSK2194069 100 nM
[12] = 0.1 µM, co-treatment: pictilisib 100 nM
[13] = 1 µM, co-treatment: AZD3965 100 nM
[14] = 1 µM, co-treatment: DMSO vehicle
[15] = 1 µM, co-treatment: GSK2194069 100 nM
[16] = 1 µM, co-treatment: pictilisib 100 nM
[17] = 10 µM, co-treatment: AZD3965 100 nM
[18] = 10 µM, co-treatment: DMSO vehicle
[19] = 10 µM, co-treatment: GSK2194069 100 nM
[20] = 10 µM, co-treatment: pictilisib 100 nM

SMILES | cell viability [1] [%] | cell viability [2] [%] | cell viability [3] [%] | cell viability [4] [%] | cell viability [5] [%] | cell viability [6] [%] | cell viability [7] [%] | cell viability [8] [%] | cell viability [9] [%] | cell viability [10] [%] | cell viability [11] [%] | cell viability [12] [%] | cell viability [13] [%] | cell viability [14] [%] | cell viability [15] [%] | cell viability [16] [%] | cell viability [17] [%] | cell viability [18] [%] | cell viability [19] [%] | cell viability [20] [%]
CC(/C=C1\SC(=S)N(CC(=O)O)C1=O)=C\c1ccccc1 [Epalrestat] | 102 ± 1.1 | 100 ± 6.5 | 102 ± 5.9 | 92 ± 4.1 | 64.9 ± 48 | 79.3 ± 39 | 79.1 ± 29 | 75.1 ± 35 | 105.5 ± 0.65 | 102 ± 4 | 109 ± 3.6 | 97.1 ± 7.8 | 101.8 ± 0.5 | 100.82 ± 0.007 | 107.58 ± 0.028 | 95.4 ± 13 | 87.6 ± 2.7 | 94.16 ± 0.38 | 94.2 ± 4.2 | 88.6 ± 2.3
CCOC(=O)[C@@]1(CCCCCCOc2ccc(Cl)cc2)CO1 [Etomoxir] | 102.9 ± 0.64 | 103 ± 1.2 | 106 ± 3.9 | 100 ± 5.9 | 84.3 ± 34 | 99.54 ± 0.17 | 92 ± 16 | 80.2 ± 27 | 106 ± 3.8 | 102 ± 3.4 | 103.8 ± 0.98 | 113 ± 5 | 87.5 ± 11 | 86.5 ± 21 | 77.9 ± 16 | 102 ± 3.8 | 109 ± 1.6 | 106 ± 1.7 | 100 ± 6.6 | 98 ± 6.5
Cc1c(-c2ccccc2)oc2c(C(=O)OCCN3CCCCC3)cccc2c1=O.Cl [Flavoxate] | 90.8 ± 13 | 99.7 ± 1.6 | 82.5 ± 21 | 98.6 ± 1 | 101.5 ± 0.24 | 100 ± 1.1 | 101 ± 2.1 | 105 ± 3.5 | 109 ± 9.9 | 104 ± 2.8 | 105 ± 11 | 110 ± 16 | 103 ± 3.7 | 95.5 ± 12 | 98.1 ± 9.8 | 101 ± 9.9 | 97.1 ± 5.2 | 98.8 ± 0.023 | 91.7 ± 8 | 91.7 ± 10
O=C(O)CCc1ccc(NCc2cccc(Oc3ccccc3)c2)cc1 [GW9508] | 101 ± 1.3 | 95.5 ± 6.2 | 105 ± 9.8 | 99.4 ± 5.3 | 98.73 ± 0.68 | 99.12 ± 0.57 | 98.1 ± 2.8 | 90.3 ± 3.8 | 98 ± 3.5 | 101.3 ± 0.3 | 101 ± 2.4 | 90.9 ± 12 | 105 ± 4.1 | 99.6 ± 0.95 | 108 ± 8.4 | 97.1 ± 6.7 | 103 ± 3.2 | 98.5 ± 1.1 | 107 ± 3.9 | 100 ± 3.3
c1ccc2c(c1)OCC(=C1NCCN1)O2 [Idazoxan] | 103 ± 1.6 | 99.03 ± 0.46 | 99.9 ± 1.9 | 104 ± 1.9 | 98 ± 3.2 | 101.2 ± 0.3 | 101 ± 1.7 | 102 ± 1.5 | 102 ± 3.3 | 100.8 ± 0.84 | 101.2 ± 0.31 | 93 ± 1.3 | 96 ± 5.5 | 101 ± 1.5 | 98.4 ± 4.8 | 95.1 ± 1.4 | 100 ± 2.2 | 98.4 ± 3.7 | 99.15 ± 0.27 | 98.7 ± 9.1
C[C@]12O[C@H](C[C@]1(O)CO)n1c3ccccc3c3c4c(c5c6ccccc6n2c5c31)CNC4=O [Lestaurtinib] | 104 ± 3.9 | 98.1 ± 4.1 | 107 ± 9.9 | 102 ± 4.3 | 92.9 ± 13 | 70.9 ± 44 | 86.5 ± 36 | 66.2 ± 28 | 76.5 ± 4.3 | 86.9 ± 3.4 | 83.2 ± 7.7 | 53.5 ± 8.1 | 23.5 ± 3.5 | 26.6 ± 0.46 | 31 ± 4.3 | 20.3 ± 3.2 | -1.19 ± 0.32 | -1.8 ± 0.59 | -1.73 ± 0.11 | -2.07 ± 1.2
O=C(O)c1nn(Cc2ccc(Cl)cc2Cl)c2ccccc12 [Lonidamine] | 96.3 ± 3.7 | 97.83 ± 0.75 | 96.6 ± 2.2 | 101 ± 1.6 | 90.8 ± 2 | 105 ± 1.4 | 97.05 ± 0.16 | 99.3 ± 12 | 100 ± 3.7 | 100.5 ± 0.34 | 98.9 ± 2.4 | 98.22 ± 0.36 | 101 ± 1.1 | 101 ± 1.2 | 101 ± 7.9 | 103 ± 7.6 | 95.4 ± 9.7 | 98.4 ± 5.4 | 99.8 ± 5.7 | 94.8 ± 8.1
C1CCc2nnc(C34CC5CC(CC(C5)C3)C4)n2CC1 [MERCK-544] | 103 ± 3 | 98.4 ± 1.3 | 105 ± 1.7 | 97 ± 1.1 | 103.1 ± 0.36 | 103 ± 2.8 | 108 ± 2 | 109 ± 8.3 | 99.41 ± 0.58 | 98.1 ± 2.4 | 99.8 ± 1.6 | 96.63 ± 0.71 | 100.6 ± 0.51 | 99.7 ± 1.4 | 96.27 ± 0.66 | 95.52 ± 0.25 | 108 ± 2 | 101 ± 2.6 | 109 ± 5.7 | 102 ± 10
CC(Cc1ccc(O)c(O)c1)C(C)Cc1ccc(O)c(O)c1 (stereo not given) [Masoprocol] | 103 ± 4.1 | 101.9 ± 0.67 | 102 ± 9.7 | 102 ± 5.4 | 100 ± 7.9 | 98.1 ± 2.7 | 100.9 ± 0.44 | 89.6 ± 7.2 | 98.5 ± 1.4 | 96.29 ± 0.34 | 98.6 ± 2.7 | 94 ± 5.3 | 92.8 ± 4.1 | 99.3 ± 1.9 | 96.6 ± 4.1 | 86.4 ± 1.2 | 10.8 ± 0.34 | 12.9 ± 3.7 | 21.8 ± 0.43 | 4.58 ± 1
COc1c(C)c2c(c(O)c1C/C=C(\C)CCC(=O)O)C(=O)OC2 [Mycophenolic acid] | 96.8 ± 3.9 | 72.1 ± 34 | 85.6 ± 16 | 91.1 ± 12 | 89.8 ± 13 | 96.4 ± 5.6 | 86.3 ± 18 | 92.87 ± 0.34 | 99 ± 6.1 | 95.9 ± 2.7 | 94.33 ± 0.34 | 99.1 ± 7.1 | 113.3 ± 0.98 | 106.1 ± 0.96 | 103 ± 7.8 | 98.72 ± 0.17 | 31.9 ± 4.8 | 56.2 ± 3.4 | 55.8 ± 1.6 | 55.7 ± 1.7
C1CCC(C(CC2CCCCN2)C2CCCCC2)CC1.O=C(O)/C=C\C(=O)O (stereo not given) [Perhexiline] | 101 ± 3.6 | 108 ± 3.6 | 104.6 ± 0.56 | 90.6 ± 16 | 95.4 ± 6.8 | 102 ± 4.9 | 91.3 ± 14 | 98.9 ± 25 | 108 ± 5.2 | 103 ± 3.9 | 99 ± 9.2 | 112.1 ± 0.54 | 99.1 ± 2.5 | 105 ± 2.4 | 86.4 ± 9.4 | 73.2 ± 25 | -0.971 ± 0.58 | -1.01 ± 1.6 | -1.86 ± 0.47 | -1.67 ± 0.61
